Source: ChEMBL document CHEMBL1137458, “Discovery of novel and orally active NR2B-selective N-methyl-D-aspartate (NMDA) antagonists, pyridinol derivatives with reduced HERG binding affinity” (Bioorg Med Chem Lett, 2007)
Converted amounts (≈) assume the structure as drawn.

What was measured:
[1] = Solubility at pH 6.5; assay type: physicochemical; conditions: buffer
[2] = biological target: Glutamate receptor ionotropic, NMDA 2B (Rattus norvegicus, UniProt Q00960); experiment: Displacement of [3H]CP-101606 from NR2B in rat forebrain P2 membrane; assay type: cell membranes, Brain
Sequence of Glutamate receptor ionotropic, NMDA 2B (Q00960 whole entry): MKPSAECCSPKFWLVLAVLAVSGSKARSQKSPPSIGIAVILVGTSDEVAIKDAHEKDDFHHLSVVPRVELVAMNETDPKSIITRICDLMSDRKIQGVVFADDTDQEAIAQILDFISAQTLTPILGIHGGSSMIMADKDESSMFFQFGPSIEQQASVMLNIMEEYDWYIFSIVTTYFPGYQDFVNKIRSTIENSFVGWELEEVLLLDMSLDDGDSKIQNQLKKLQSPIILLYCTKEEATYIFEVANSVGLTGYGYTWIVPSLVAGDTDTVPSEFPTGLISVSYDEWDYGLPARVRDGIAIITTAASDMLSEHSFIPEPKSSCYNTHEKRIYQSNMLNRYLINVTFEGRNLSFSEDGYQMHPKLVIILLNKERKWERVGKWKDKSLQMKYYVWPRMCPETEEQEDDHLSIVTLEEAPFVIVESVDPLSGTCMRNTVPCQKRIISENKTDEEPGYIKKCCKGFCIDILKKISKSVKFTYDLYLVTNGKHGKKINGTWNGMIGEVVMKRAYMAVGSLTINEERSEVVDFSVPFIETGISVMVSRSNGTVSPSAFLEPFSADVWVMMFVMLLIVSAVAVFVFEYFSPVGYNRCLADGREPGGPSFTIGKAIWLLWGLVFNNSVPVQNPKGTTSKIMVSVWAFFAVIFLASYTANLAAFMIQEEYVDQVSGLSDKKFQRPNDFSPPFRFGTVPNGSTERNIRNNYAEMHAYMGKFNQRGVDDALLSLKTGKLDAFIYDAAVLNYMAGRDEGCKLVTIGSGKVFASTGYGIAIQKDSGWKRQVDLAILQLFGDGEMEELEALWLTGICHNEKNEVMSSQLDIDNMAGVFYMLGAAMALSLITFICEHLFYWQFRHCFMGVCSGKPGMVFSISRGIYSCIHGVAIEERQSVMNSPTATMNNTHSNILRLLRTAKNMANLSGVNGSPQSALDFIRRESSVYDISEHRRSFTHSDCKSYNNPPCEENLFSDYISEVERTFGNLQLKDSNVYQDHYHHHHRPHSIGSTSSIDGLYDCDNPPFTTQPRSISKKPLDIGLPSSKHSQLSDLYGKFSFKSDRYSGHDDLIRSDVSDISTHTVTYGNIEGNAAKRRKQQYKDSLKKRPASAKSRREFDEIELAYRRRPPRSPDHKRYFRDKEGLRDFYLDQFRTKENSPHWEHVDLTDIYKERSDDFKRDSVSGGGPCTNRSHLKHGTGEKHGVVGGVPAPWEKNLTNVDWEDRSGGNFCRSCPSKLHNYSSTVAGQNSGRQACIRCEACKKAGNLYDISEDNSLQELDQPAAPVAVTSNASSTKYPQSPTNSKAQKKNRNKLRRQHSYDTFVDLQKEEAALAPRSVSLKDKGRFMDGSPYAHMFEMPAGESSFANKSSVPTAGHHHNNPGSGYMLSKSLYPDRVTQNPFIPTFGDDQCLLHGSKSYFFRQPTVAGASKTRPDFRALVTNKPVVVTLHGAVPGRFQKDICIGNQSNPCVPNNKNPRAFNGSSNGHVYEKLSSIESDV

[3] = biological target: Voltage-gated inwardly rectifying potassium channel KCNH2 (Homo sapiens, UniProt Q12809); experiment: Displacement of [3H]dofetilide from human HERG expressed in HEK293 cells; assay type: cell-based
Sequence of Voltage-gated inwardly rectifying potassium channel KCNH2 (Q12809 whole entry): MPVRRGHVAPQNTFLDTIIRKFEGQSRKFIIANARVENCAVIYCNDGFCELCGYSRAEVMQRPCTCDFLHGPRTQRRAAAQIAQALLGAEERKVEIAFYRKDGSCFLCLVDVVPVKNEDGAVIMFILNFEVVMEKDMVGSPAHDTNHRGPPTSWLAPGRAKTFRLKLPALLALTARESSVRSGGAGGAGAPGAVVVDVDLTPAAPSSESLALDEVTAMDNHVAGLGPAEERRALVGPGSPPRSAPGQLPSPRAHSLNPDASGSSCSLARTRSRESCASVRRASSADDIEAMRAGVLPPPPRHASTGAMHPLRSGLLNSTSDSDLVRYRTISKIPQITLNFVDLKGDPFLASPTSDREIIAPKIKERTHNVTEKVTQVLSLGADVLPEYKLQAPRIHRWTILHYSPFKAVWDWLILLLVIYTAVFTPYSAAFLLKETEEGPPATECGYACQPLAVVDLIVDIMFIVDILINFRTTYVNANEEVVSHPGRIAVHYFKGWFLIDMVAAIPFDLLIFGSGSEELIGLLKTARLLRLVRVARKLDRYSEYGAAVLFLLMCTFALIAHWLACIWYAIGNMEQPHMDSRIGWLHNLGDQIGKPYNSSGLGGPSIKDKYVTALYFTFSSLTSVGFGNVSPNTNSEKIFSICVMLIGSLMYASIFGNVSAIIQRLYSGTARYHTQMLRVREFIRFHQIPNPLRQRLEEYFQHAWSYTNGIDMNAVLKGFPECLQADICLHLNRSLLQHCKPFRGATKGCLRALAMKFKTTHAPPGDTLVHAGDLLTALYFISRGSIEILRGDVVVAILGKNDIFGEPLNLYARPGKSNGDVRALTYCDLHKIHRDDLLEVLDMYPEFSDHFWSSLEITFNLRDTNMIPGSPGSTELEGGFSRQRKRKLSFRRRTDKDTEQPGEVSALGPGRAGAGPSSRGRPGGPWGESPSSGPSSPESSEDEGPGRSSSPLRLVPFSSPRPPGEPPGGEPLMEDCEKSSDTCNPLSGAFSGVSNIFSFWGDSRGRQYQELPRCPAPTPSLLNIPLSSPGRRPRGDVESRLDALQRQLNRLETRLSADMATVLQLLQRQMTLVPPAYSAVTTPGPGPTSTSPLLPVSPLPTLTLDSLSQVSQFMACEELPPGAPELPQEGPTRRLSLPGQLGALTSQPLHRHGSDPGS

[4] = Metabolic stability assessed Half life in human liver microsomes; assay type: ADME, Microsome
Mus musculus = experiment: Antiallodynic activity in po dosed mouse partial sciatic nerve ligation model; assay type: functional
hERG (KCNH2) = hERG (KCNH2) (Homo sapiens, UniProt Q12809); experiment: Inhibition of HERG current at 30 uM
Sequence of hERG (KCNH2) (Q12809 whole entry): as above

[5] = Bioavailability in mouse; assay type: ADME, organism-based; conditions: in vivo

Structure (SMILES)	IC50 [2]	IC50 [3]	further results
O=C(CCc1ccccc1)N[C@H]1CC[C@H](c2ccc(O)cc2)CC1	30 nM		solubility [1]: < 5 µg/mL
O=C(CCc1cccnc1)N[C@H]1CC[C@H](c2ccc(O)cc2)CC1	> 1000 nM		
O=C(CCc1ccccn1)N[C@H]1CC[C@H](c2ccc(O)cc2)CC1	856 nM	> 30000 nM	
Cc1cnc(CCC(=O)N[C@H]2CC[C@H](c3ccc(O)cc3)CC2)s1	96 nM	> 10000 nM	
O=C(N[C@H]1CC[C@H](c2ccc(O)cc2)CC1)C1Cc2ccccc2CN1 (stereo partly drawn)	> 1000 nM	> 30000 nM	solubility [1]: 18 µg/mL (≈ 51.4 µM)
CN(C)C(Cc1ccccc1)C(=O)N[C@H]1CC[C@H](c2ccc(O)cc2)CC1 (stereo partly drawn)	> 1000 nM		
O=C(CCc1ccccc1)N[C@H]1CC[C@](O)(c2ccc(O)cc2)CC1	19 nM	> 30000 nM	solubility [1]: 20 µg/mL (≈ 58.9 µM)
Cc1cc([C@]2(O)CC[C@@H](NC(=O)CCc3ccccc3)CC2)ccc1O	189 nM		solubility [1]: < 5 µg/mL; IC50 ([3]; hek293): > 10000 nM
Cc1cc([C@H]2CC[C@H](NC(=O)CCc3ccccc3)CC2)ccc1O	> 5000 nM		
Cc1cc(O)ccc1[C@H]1CC[C@H](NC(=O)CCc2ccccc2)CC1	722 nM		
O=C(CCc1ccccc1)N[C@H]1CC[C@](O)(c2ccc(O)c(F)c2)CC1	13 nM		solubility [1]: 17 µg/mL (≈ 47.6 µM)
O=C(CCc1ccccc1)N[C@H]1CC[C@H](c2ccc(O)c(F)c2)CC1	59 nM		IC50 ([3]; hek293): > 10000 nM
O=C(CCc1ccccc1)N[C@H]1CC[C@](O)(c2ccc(O)cn2)CC1	10 nM	> 30000 nM	half-life [4]: > 1 h; MED (Mus musculus): 10 mg/kg; solubility [1]: 130 µg/mL (≈ 382 µM); inhibition at 30 µM (hERG (KCNH2)): 9%; bioavailability [5]: 27%
O=C(CCc1ccccc1)N[C@H]1CC[C@](O)(c2c[nH]c3nc(=O)oc-3c2)CC1	85 nM		
O=C1CCc2cc([C@@H](O)CN3CCC(O)(c4cccc(F)c4)CC3)ccc2N1		1100 nM	
Cc1cc([C@]2(O)CC[C@@H](NC(=O)CCc3ccccc3)CC2)ncc1O	116 nM		
CS(=O)(=O)Nc1ccc([C@]2(O)CC[C@@H](NC(=O)CCc3ccccc3)CC2)cn1	> 5000 nM		
Nc1ccc([C@]2(O)CC[C@@H](NC(=O)CCc3ccccc3)CC2)cn1	> 5000 nM		
O=C(CCc1ccccc1)N[C@H]1CC[C@](O)(c2cn[nH]c2)CC1	2440 nM		
O=C(CCc1ccccc1)N[C@H]1CC[C@](O)(c2ccc3nc[nH]c3c2)CC1	4960 nM		
O=C1CC(Cc2ccccc2)CCN1CC(O)c1ccc(O)cc1 (stereo not drawn)		> 30000 nM	
Cn1c(CCC(=O)N[C@H]2CC[C@H](c3ccc(O)cc3)CC2)nc2ccccc21	> 1000 nM		
Cc1cc(O)ccc1[C@]1(O)CC[C@@H](NC(=O)CCc2ccccc2)CC1	25 nM		IC50 ([3]; hek293): > 10000 nM
O=C(CCc1ccccc1)N[C@H]1CC[C@](O)(c2c[nH]cn2)CC1	> 5000 nM		
C[C@@H]([C@@H](O)c1ccc(O)cc1)N1CCC(Cc2ccccc2)CC1 [(S)-IFENPRODIL]		< 1000 nM	
